What was measured:
HSB-2 cells = experiment: Inhibition of HSB-2 leukemic cell line proliferation (WST-1); format: cell-based, human; settings: Homo sapiens, HSB2, 48 h, cytotoxicity on HSB-2 cells, two days incubation, WST-1 read-out
Description: (§1) HSB2 cell line, a human acute lymphoblastic leukemia (ATCC; CCL-120.1) cell line, was grown in RPMI-1640 medium (Lonza, Belgium) supplemented with 10% fetal calf serum (Hyclone, US) and antibiotics. Exponential growing phase cells were seed in flat bottom 96-well microplates (TTP, Switzerland) at 50000 cells per well in 220 μl of medium with compounds (in different concentrations) and incubated for two days at 37° C., 5% CO2. After incubation, 100 μl of supernatant were removed and 10 μl of WST-1 (Roche, Switzerland) were added. After 2 hour incubation at 37° C., 5% CO2, optical densities were measured at 450 nm. Proliferation is calculated with respect of control points (no compound and treatment with Triton X100 to have maximum and minimum proliferation data). The IC50 was determined from a graph with at least four points, each derived from the mean of at least 2 experiments. […] The results are shown in Table 1 for a number of compounds.

HL-60 cells = experiment: Inhibition of HL-60 leukemic cell line proliferation (WST-1); format: cell-based, human; settings: Homo sapiens, 48 h; cytotoxicity on HL-60 cells, two days incubation, WST-1 read-out
Description: as §1, with “HL-60 cell” for “HSB2 cell”, “human promyelocytic” for “human acute lymphoblastic”, “(ATCC; CCL-240)” for “(ATCC; CCL-120.1)”, “Table 2” for “Table 1”

| SMILES | IC50 (HSB-2 cells) | IC50 (HL-60 cells) |
| --- | --- | --- |
| CCCCCc1nc2c(N3CCN(C(=O)COc4ccc(Cl)cc4)CC3)nc(N)nc2o1 [Example 188, 5-amino-7-[4-(4-chlorophenoxyacetyl)piperazin-1-yl]-2-pentyloxazolo[5,4-d]pyrimidine] | > 10 µM | > 10 µM |
| Nc1nc(N2CCN(C(=O)Nc3ccc(Br)cc3)CC2)c2nc(-c3ccc(F)cc3)sc2n1 [Example 218, 4-(5-amino-2-(4-fluorophenyl)thiazolo[5,4-d]pyrimidin-7-yl)-N-(4-bromophenyl)piperazine-1-carboxamide] | 7.05 µM | 7.35 µM |
| Nc1nc(N2CCN(C(=O)COc3ccc(Cl)cc3)CC2)c2nc(-c3ccccn3)sc2n1 [Example 282, 1-(4-(5-amino-2-(pyridin-2-yl)thiazolo[5,4-d]pyrimidin-7-yl)piperazin-1-yl)-2-(4-chlorophenoxy)ethanone] | 0.56 µM | 0.92 µM |
| Nc1nc(N2CC[C@@H](NC(=O)c3ccc(Cl)cc3)C2)c2cc(-c3ccc(F)cc3)sc2n1 [Example 341, (R)—N-(1-(2-amino-6-(4-fluorophenyl)thieno[2,3-d]pyrimidin-4-yl)pyrrolidin-3-yl)-4-chlorobenzamide] | > 10 µM | > 10 µM |
| COc1ccccc1NC(=O)N1CCN(c2nc(N)nc3sc(-c4ccc(F)cc4)nc23)CC1 [Example 219, 4-(5-amino-2-(4-fluorophenyl)thiazolo[5,4-d]pyrimidin-7-yl)-N-(2-methoxyphenyl)piperazine-1-carboxamide] | 5.83 µM | 6.19 µM |
| Nc1nc(N2CCN(C(=O)COc3ccc(Cl)cc3)CC2)c2nc(-c3ccc(C(F)(F)F)cc3)[nH]c2n1 [Example 394, 1-(4-(2-amino-8-(4-(trifluoromethyl)phenyl)-9H-purin-6-yl)piperazin-1-yl)-2-(4-chlorophenoxy)ethanone] | 7.37 µM | 8.78 µM |
| Nc1nc(N2CCN(C(=O)CCc3ccccc3)CC2)c2cc(-c3ccc(F)cc3)sc2n1 [Example 343, 1-(4-(2-amino-6-(4-fluorophenyl)thieno[2,3-d]pyrimidin-4-yl)piperazin-1-yl)-3-phenylpropan-1-one] | > 10 µM | > 10 µM |
| CSc1nc2c(N3CCN(C(=O)COc4ccc(Cl)cc4)CC3)nc(N)nc2[nH]1 [Example 424, 1-(4-(2-amino-8-(methylthio)-9H-purin-6-yl)piperazin-1-yl)-2-(4-chlorophenoxy)ethanone] | 4.6 µM | 0.01 µM |
| N#Cc1ccc(NC(=O)N2CCN(c3nc(N)nc4sc(-c5cccnc5)nc34)CC2)cc1 [Example 279, 4-(5-amino-2-(pyridin-3-yl)thiazolo[5,4-d]pyrimidin-7-yl)-N-(4-cyanophenyl)piperazine-1-carboxamide] | 0.68 µM | 0.88 µM |
| Nc1nc(N2CCN(C(=O)COc3ccc(Cl)cc3)CC2)c2nc(SC3CCCC3)[nH]c2n1 [Example 429, 1-(4-(2-amino-8-(cyclopentylthio)-9H-purin-6-yl)piperazin-1-yl)-2-(4-chlorophenoxy)ethanone] | 7.87 µM | > 10 µM |
| Cc1cccc(NC(=O)N2CCN(c3nc(N)nc4sc(-c5ccccc5)cc34)CC2)c1 [Example 330, 4-(2-amino-6-phenylthieno[2,3-d]pyrimidin-4-yl)-N-m-tolylpiperazine-1-carboxamide] | 7.61 µM | > 10 µM |
| Nc1nc(N2CCN(C(=O)COc3cccc([N+](=O)[O-])c3)CC2)c2nc(-c3ccc(F)cc3)sc2n1 [Example 129, 5-amino-2-(4-fluorophenyl)-7-(4-[2-(3-nitrophenoxy)acetyl]-piperazin-1-yl)-thiazolo[5,4-d]pyrimidine] | 4.76 µM | 9.74 µM |
| Nc1nc(N2CCN(C(=O)COc3ccc(Cl)cc3)CC2)c2nc(-c3ccc(Br)cc3)[nH]c2n1 [Example 391, 1-(4-(2-amino-8-(4-bromophenyl)-9H-purin-6-yl)piperazin-1-yl)-2-(4-chlorophenoxy)ethanone] | 2.14 µM | 3.65 µM |
| Nc1nc(N2CCN(C(=O)COc3ccc(Cl)cc3)CC2)c2cc(-c3ccccc3)sc2n1 [Example 329, 1-(4-(2-amino-6-phenylthieno[2,3-d]pyrimidin-4-yl)piperazin-1-yl)-2-(4-chlorophenoxy)ethanone] | 13.7 µM | > 10 µM |
| Nc1nc(N2CCN(C(=O)COc3ccc(Cl)cc3)CC2)c2nc(CCc3ccccc3)oc2n1 [Example 189, 5-amino-2-(2-phenylethyl)-7-[4-(4-chlorophenoxyacetyl)piperazin-1-yl]oxazolo[5,4-d]pyrimidine] | > 10 µM | > 10 µM |
| Nc1nc(N2CCN(C(=O)COc3ccc(Cl)cc3)CC2)c2nc(C3CC3)sc2n1 [Example 119, 5-amino-2-cyclopropyl-7-[4-(4-chlorophenoxyacetyl)piperazin-1-yl]-thiazolo[5,4-d]pyrimidine] | 3.03 µM | 3.81 µM |
| Nc1nc(N2CCN(C(=O)COc3cccc([N+](=O)[O-])c3)CC2)c2nc(-c3ccc(F)cc3)oc2n1 [Example 193, 5-amino-2-(4-fluorophenyl)-7-(4-[2-(3-nitrophenoxy)acetyl]-piperazin-1-yl)-oxazolo[5,4-d]pyrimidine] | > 10 µM | > 10 µM |
| CN(C(=O)CN1CCN(c2nc(N)nc3oc(CCc4ccc(F)cc4)nc23)CC1)c1ccccc1 [Example 198, 5-amino-2-[2-(4-fluorophenyl)ethyl]-7-(4-[(methylphenyl-carbamoyl)methyl]piperazin-1-yl)-oxazolo[5,4-d]pyrimidine] | > 10 µM | > 10 µM |
| Nc1nc(N2CCN(C(=O)COc3ccc(F)cc3)CC2)c2nc(-c3ccco3)sc2n1 [Example 209, 1-(4-(5-amino-2-(furan-2-yl)thiazolo[5,4-d]pyrimidin-7-yl)piperazin-1-yl)-2-(4-fluorophenoxy)ethanone] | 0.51 µM | 0.57 µM |
| Cc1cccc(NC(=O)N2CCN(c3nc(N)nc4sc(CCc5ccc(F)cc5)nc34)CC2)c1 [Example 133, 5-amino-2-[2-(4-fluorophenyl)ethyl]-7-(4-m-tolylcarbamoylpiperazin-1-yl)-thiazolo[5,4-d]pyrimidine] | 12.3 µM | > 10 µM |
| Cc1cc(Cl)ccc1OCC(=O)N1CCN(c2nc(N)nc3sc(-c4ccc(F)cc4)nc23)CC1 [Example 213, 1-(4-(5-amino-2-(4-fluorophenyl)thiazolo[5,4-d]pyrimidin-7-yl)piperazin-1-yl)-2-(4-chloro-2-methylphenoxy)ethanone] | 5.25 µM | 6.72 µM |
| COc1ccc(OCC(=O)N2CCN(c3nc(N)nc4sc(-c5ccccc5)nc34)CC2)cc1 [Example 208, 1-(4-(5-amino-2-phenylthiazolo[5,4-d]pyrimidin-7-yl)piperazin-1-yl)-2-(4-methoxyphenoxy)ethanone] | 0.06 µM | 0.07 µM |
| COc1cccc(-c2nc3c(N4CCN(C(=O)COc5ccc(Cl)cc5)CC4)nc(N)nc3s2)c1 [Example 124, 5-amino-7-[4-(4-chlorophenoxyacetyl)piperazin-1-yl]-2-(3-methoxyphenyl)thiazolo[5,4-d]pyrimidine] | 2.29 µM | 0.96 µM |
| CCCc1nc2c(N3CCN(C(=O)COc4ccc(Cl)cc4)CC3)nc(N)nc2[nH]1 [Example 397, 1-(4-(2-amino-8-propyl-9H-purin-6-yl)piperazin-1-yl)-2-(4-chlorophenoxy)ethanone] | 4.51 µM | 1.26 µM |
